In the NIST ThermoML archive (doi:10.1021/je700580g):
Numbers after ± are expanded uncertainties.

Legend:
[1] = 101.33 kPa, Liquid
[2] = refractive index (Na D-line) (dimensionless); details: 101.33 kPa, Liquid, Standard Abbe refractometry
[3] = xn = mol fraction of the nth substance listed; details: 101 kPa, Liquid

CCCCCCO [hexan-1-ol]
Details | mass density, 293.15 K [kg/m3] | mass density, 298.15 K [kg/m3] | mass density, 303.15 K [kg/m3] | mass density, 308.15 K [kg/m3] | mass density, 313.15 K [kg/m3] | refractive index, 293.15 K | refractive index, 298.15 K
[1] | 818.74 ± 1.4 | 815.28 ± 1.4 | 811.71 ± 1.4 | 808.13 ± 1.4 | 804.53 ± 1.4 | – | –
[2] | – | – | – | – | – | 1.4183 ± 0.0007 | 1.4161 ± 0.0007

CCCCCCCCO [octan-1-ol]
Details | mass density, 293.15 K [kg/m3] | mass density, 298.15 K [kg/m3] | mass density, 303.15 K [kg/m3] | mass density, 308.15 K [kg/m3] | mass density, 313.15 K [kg/m3] | refractive index, 293.15 K | refractive index, 298.15 K
[1] | 825.12 ± 0.74 | 821.75 ± 0.75 | 818.31 ± 0.75 | 814.8 ± 0.76 | 811.41 ± 0.77 | – | –
[2] | – | – | – | – | – | 1.4298 ± 0.0006 | 1.428 ± 0.0006

CCCCO [butan-1-ol]
Details | mass density, 293.15 K [kg/m3] | mass density, 298.15 K [kg/m3] | mass density, 303.15 K [kg/m3] | mass density, 308.15 K [kg/m3] | mass density, 313.15 K [kg/m3] | refractive index, 293.15 K | refractive index, 298.15 K
[1] | 809.6 ± 0.46 | 805.84 ± 0.47 | 802.04 ± 0.47 | 798.2 ± 0.48 | 794.31 ± 0.48 | – | –
[2] | – | – | – | – | – | 1.3997 ± 0.0006 | 1.3978 ± 0.0006

CCCCCCO [hexan-1-ol] + OCCO
mass density [kg/m3], [3]
Details | x2 = 0.08275 | x2 = 0.1585 | x2 = 0.2374 | x2 = 0.3265 | x2 = 0.4905 | x2 = 0.5445 | x2 = 0.5965 | x2 = 0.6932 | x2 = 0.7757 | x2 = 0.9053
293.15 K | 829.72 ± 1.1 | 840.78 ± 1 | 853.56 ± 0.92 | 869.87 ± 0.84 | 905.8 ± 0.67 | 919.79 ± 0.61 | 934.39 ± 0.55 | 965.41 ± 0.44 | 996.6 ± 0.33 | 1057.08 ± 0.41
298.15 K | 826.21 ± 1.1 | 837.17 ± 1 | 849.99 ± 0.93 | 866.29 ± 0.84 | 902.2 ± 0.67 | 916.19 ± 0.62 | 930.83 ± 0.56 | 961.84 ± 0.45 | 993.11 ± 0.34 | 1053.67 ± 0.4
303.15 K | 822.63 ± 1.1 | 833.58 ± 1 | 846.39 ± 0.93 | 862.69 ± 0.85 | 898.58 ± 0.68 | 912.56 ± 0.62 | 927.24 ± 0.57 | 958.23 ± 0.45 | 989.49 ± 0.35 | 1050.1 ± 0.4
308.15 K | 819.02 ± 1.1 | 829.96 ± 1 | 842.67 ± 0.94 | 859.01 ± 0.85 | 894.88 ± 0.69 | 908.9 ± 0.63 | 923.53 ± 0.57 | 954.54 ± 0.46 | 985.79 ± 0.36 | 1046.52 ± 0.39
313.15 K | 815.44 ± 1.1 | 826.33 ± 1 | 839.04 ± 0.94 | 855.36 ± 0.86 | 891.27 ± 0.69 | 905.23 ± 0.64 | 919.95 ± 0.58 | 950.95 ± 0.47 | 982.18 ± 0.36 | 1042.98 ± 0.38

OCCO [1,2-ethanediol] + CCCCO
mass density [kg/m3], [3]
Details | x1 = 0.08923 | x1 = 0.249 | x1 = 0.3206 | x1 = 0.4019 | x1 = 0.5347 | x1 = 0.6571 | x1 = 0.6974 | x1 = 0.7753 | x1 = 0.81 | x1 = 0.9121
293.15 K | 826.85 ± 0.63 | 861.02 ± 0.55 | 878.11 ± 0.51 | 898.74 ± 0.46 | 936.02 ± 0.38 | 975.06 ± 0.29 | 989.14 ± 0.26 | 1017.69 ± 0.28 | 1030.76 ± 0.31 | 1073.19 ± 0.42
298.15 K | 823.02 ± 0.64 | 857.21 ± 0.56 | 874.25 ± 0.52 | 894.96 ± 0.47 | 932.22 ± 0.39 | 971.34 ± 0.3 | 985.27 ± 0.27 | 1013.86 ± 0.27 | 1027.06 ± 0.3 | 1069.67 ± 0.41
303.15 K | 819.29 ± 0.64 | 853.42 ± 0.57 | 870.64 ± 0.53 | 891.24 ± 0.48 | 928.63 ± 0.4 | 967.77 ± 0.31 | 981.88 ± 0.28 | 1010.51 ± 0.26 | 1023.76 ± 0.3 | 1066.15 ± 0.4
308.15 K | 815.49 ± 0.65 | 849.65 ± 0.57 | 866.86 ± 0.54 | 887.45 ± 0.49 | 924.91 ± 0.41 | 964.18 ± 0.32 | 978.14 ± 0.29 | 1006.95 ± 0.26 | 1020.29 ± 0.29 | 1062.56 ± 0.39
313.15 K | 811.51 ± 0.66 | 845.69 ± 0.58 | 862.94 ± 0.54 | 883.57 ± 0.5 | 921.05 ± 0.41 | 960.49 ± 0.33 | 974.54 ± 0.29 | 1003.28 ± 0.25 | 1016.76 ± 0.28 | 1059.01 ± 0.38

CCCCCCCCO [octan-1-ol] + OCCO
mass density [kg/m3], [3]
Details | x2 = 0.07997 | x2 = 0.159 | x2 = 0.2159 | x2 = 0.36 | x2 = 0.4825 | x2 = 0.5912 | x2 = 0.6299 | x2 = 0.7437 | x2 = 0.8063 | x2 = 0.8892
293.15 K | 833.01 ± 0.7 | 842 ± 0.68 | 849.21 ± 0.65 | 870.86 ± 0.59 | 894.13 ± 0.53 | 920.03 ± 0.46 | 930.8 ± 0.43 | 968.64 ± 0.33 | 994.57 ± 0.27 | 1036.57 ± 0.34
298.15 K | 829.64 ± 0.71 | 838.63 ± 0.68 | 845.74 ± 0.66 | 867.38 ± 0.6 | 890.64 ± 0.53 | 916.52 ± 0.46 | 927.19 ± 0.44 | 965.11 ± 0.34 | 991.03 ± 0.28 | 1033.02 ± 0.33
303.15 K | 826.15 ± 0.72 | 835.13 ± 0.69 | 842.24 ± 0.67 | 863.92 ± 0.6 | 887.11 ± 0.54 | 912.94 ± 0.47 | 923.7 ± 0.45 | 961.5 ± 0.35 | 987.45 ± 0.29 | 1029.52 ± 0.32
308.15 K | 822.68 ± 0.73 | 831.61 ± 0.7 | 838.76 ± 0.68 | 860.33 ± 0.61 | 883.47 ± 0.55 | 909.33 ± 0.48 | 920.08 ± 0.45 | 957.92 ± 0.36 | 983.8 ± 0.3 | 1025.99 ± 0.32
313.15 K | 819.15 ± 0.73 | 828.07 ± 0.7 | 835.18 ± 0.68 | 856.83 ± 0.62 | 879.91 ± 0.56 | 905.71 ± 0.49 | 916.5 ± 0.46 | 954.32 ± 0.37 | 980.25 ± 0.3 | 1022.37 ± 0.31

OCCO [1,2-ethanediol]
Details | mass density, 293.15 K [kg/m3] | mass density, 303.15 K [kg/m3] | mass density, 313.15 K [kg/m3] | refractive index, 293.15 K | refractive index, 298.15 K
[1] | 1113.37 ± 0.37 | 1106.4 ± 0.35 | 1099.35 ± 0.34 | – | –
[2] | – | – | – | 1.4323 ± 0.0005 | 1.4309 ± 0.0005
